PMC8175350, “Drug repurposing screens identify chemical entities for the development of COVID-19 interventions” (Nature Communications, 2021)
pEC50: −log10 of the molar value. “And” between values parts separate entries of the source, which are not always exact repeats. Equal values may be shown once. Where a name gives a salt, the structure may show the parent alone. Read-outs that look alike come from different tables or passages of the source. Residues, ends and D or L forms follow the SMILES beside them. *: point of attachment. Cbz = O=C(OCc1ccccc1)*; CHN2 = [N-]=[N+]=C*

Key:
SARS-CoV-2 [1] = assay: microbe, parasite or virus in culture; type: cell-based; conditions: for Emax: Severe acute respiratory syndrome coronavirus 2, HeLa-ACE2, 24 h, read-out: HeLa-ACE2 CoV-2 Sinf Average; for HeLa-ACE2 SI: selectivity index, uninfected HeLa-ACE2 CC50 / SARS-CoV-2 EC50
[2] = Uninfected HeLa-ACE2 24 h live/dead cytotoxicity counter screen; type: cell-based, human; conditions: human, uninfected HeLa-ACE2 cells
SARS-CoV-2 [3] = assay: microbe, parasite or virus in culture; type: cell-based
SARS-CoV-2 [4] = assay: microbe, parasite or virus in culture; type: cell-based; conditions: for pEC50: read-out: HeLa-ACE2 TOA CoV-2 EC50 GeoMean
SARS-CoV-2 [5] = type: cell-based
HeLa-ACE2 cells [6] = assay: Total cell count in the HeLa-ACE2 TOA (time of addition) assay; type: cell-based, human; conditions: Homo sapiens, HeLa-ACE2; read-out: HeLa-ACE2 TOA cell count EC50 GeoMean
Calu-3 cells [7] = test system: Calu-3 cells
HeLa-ACE2 cells [8] = assay: cells; conditions: Homo sapiens; for pEC50: HeLa-ACE2, read-out: HeLa-ACE2 cell count EC50 GeoMean
Calu-3 cells [9] = assay: cells; conditions: Homo sapiens; for pEC50: Calu-3, read-out: Calu-3 cell count EC50 GeoMean
in vitro [10] = conditions: human, Calu-3 uninfected cytotoxicity CC50 GeoMean
in vitro [11] = conditions: human
in vitro [12] = conditions: human; remark: listed apart in the source
HeLa-ACE2 cells [13] = assay: Uninfected HeLa-ACE2 24 h live/dead cytotoxicity counter screen; type: cell-based, human
SARS-CoV-2 [14] = type: cell-based; conditions: 72 hpi
SARS-CoV-2 [15] = assay: Golden Syrian hamster SARS-CoV-2 efficacy model, body weight; type: in vivo; conditions: for hamster weight relative to day 0, individual animals: 500 mg/kg PO
SARS-CoV-2 [16] = assay: Hamster lung viral titer by plaque assay, day 5; type: in vivo, Golden Syrian hamster; conditions: 500 mg/kg PO; values look like log10
[17] = Pharmacokinetic studies in Syrian hamsters, PO; type: in vivo; conditions: 500 mg/kg PO; for AUC(0-t): po, 500 mg/kg
Description: Pharmacokinetic studies were conducted at Scripps Research Institute’s Animal Models Core in accordance with IACUC guidelines (IACUC Protocol #09-0004-5). Eight-week-old male Syrian Hamsters (Charles River; three per group) were dosed PO as indicated for each compound and formulation. Plasma concentration of each test article was monitored up to 48 h. Nelfinavir was formulated in 10% DMSO/90% corn oil and MK-4482 was formulated in 10% PEG400/2.5% Cremaphor RH40 for both pharmacokinetic and efficacy studies.

HeLa-ACE2 cells [18] = assay: Total cell count in the HeLa-ACE2 TOA assay; type: cell-based; conditions: Homo sapiens
Description: Supplement 41467_2021_23328_MOESM3_ESM.xlsx, sheet "Table S1" | column: HeLa-ACE2 TOA cell count

[19] = ref [33]-[49], cited from earlier work
[20] = HepG2 72 h CellTiter-Glo cytotoxicity; conditions: human, HepG2 cells
HepG2 = HepG2 72 h CellTiter-Glo cytotoxicity; conditions: 72 h
[21] = HEK293T 72 h CellTiter-Glo cytotoxicity; conditions: human, HEK293T cells
HEK293T = HEK293T 72 h CellTiter-Glo cytotoxicity; conditions: 72 h
[22] = Uninfected Calu-3 48 h Cell-Titer Glo cytotoxicity counter screen; conditions: human, uninfected Calu-3 cells, Calu-3 Uninf. cells CC50 (µM), reconfirmed hits
Calu-3 cells [23] = assay: as above; conditions: curve plateau at infinite concentration
[24] = Severe acute respiratory syndrome coronavirus 2, HeLa-ACE2, detail column, read-out: HeLa-ACE2 CoV-2 EC50 GeoMean
[25] = read-out: HeLa-ACE2 uninfected cytotoxicity CC50 GeoMean
[26] = Severe acute respiratory syndrome coronavirus 2, Calu-3, read-out: Calu-3 CoV-2 EC50 GeoMean
[27] = Severe acute respiratory syndrome coronavirus 2, HeLa-ACE2, detail column
[28] = curve plateau at infinite concentration
[29] = male, Syrian, hamster, plasma, 10%DMSO/90% Corn Oil

With CCOC(=O)[C@@H]1O[C@H]1C(=O)N[C@@H](CC(C)C)C(=O)N1CCN(Cc2ccc(OC)c(OC)c2OC)CC1 [NCO 700] the Emax (SARS-CoV-2 [1]) was 90%, the pEC50 (SARS-CoV-2 [1]; [24]) was 6.10 and the “HeLa-ACE2 SI” value (SARS-CoV-2 [1]) was over 50.44. For the same molecule, the CC50 at 24 h [2, 25] was over 39.8 µM, the pEC50 (SARS-CoV-2 [3]; [26]) was under 5.00 and the “TOA:HeLa-ACE2 EC50 Ratio” value (SARS-CoV-2 [4]) was 12.146. The pEC50 (SARS-CoV-2 [4]; [27]) was under 5.02, the “HeLa-ACE2 synergy score with remdesivi” value (SARS-CoV-2 [5]; combination with remdesivir) was 0.209 δ and the pEC50 (HeLa-ACE2 cells [6]) was under 5.02. The “uninfected Calu-3 CC50” value (Calu-3 cells [7]) was > 29.867 ×÷ 1.001 (n=3) μM, the Emax (HeLa-ACE2 cells [8]; HeLa-ACE2, 24 h, read-out: HeLa-ACE2 cell count Sinf Average) was -26% and the pEC50 (HeLa-ACE2 cells [8]) was under 5.29. For the same molecule, the pEC50 (Calu-3 cells [9]) was under 5.00, the CC50 at 48 h (in vitro [10]) was over 29.9 µM and the CC50 at 72 h (in vitro [11]) was over 39.8 µM. For the same molecule, the CC50 at 72 h (in vitro [12]) was over 39.8 µM.

Work on Cc1c(O)cccc1C(=O)N[C@@H](CSc1ccccc1)[C@H](O)CN1C[C@H]2CCCC[C@H]2C[C@H]1C(=O)NC(C)(C)C [Nelfinavir mesylate] yielded an Emax (SARS-CoV-2 [1]; [28]) of 100%, a pEC50 (SARS-CoV-2 [1]; Severe acute respiratory syndrome coronavirus 2, HeLa-ACE2, reconfirmed hits, read-out: HeLa-ACE2 SARS-CoV-2 EC50) of under 5.06 and a CC50 at 24 h ([2]; reconfirmed hits, read-out: HeLa-ACE2 Uninf. cells CC50) of over 18 µM. For the same molecule, the CC50 at 24 h [2, 25] was over 18 µM, the “HeLa-ACE2 uninfected cytotoxicity Sinf Average” value (HeLa-ACE2 cells [13]; [28]) was -100% and the Emax (SARS-CoV-2 [3]; Severe acute respiratory syndrome coronavirus 2, Calu-3, 48 h, curve plateau at infinite concentration, read-out: Calu-3 CoV-2 Sinf Average) was 90%. For the same molecule, the pEC50 (SARS-CoV-2 [3]; Severe acute respiratory syndrome coronavirus 2, Calu-3, reconfirmed hits, read-out: Calu-3 SARS-CoV-2 EC50) was 6.44, the Emax (SARS-CoV-2 [4]; Severe acute respiratory syndrome coronavirus 2, HeLa-ACE2, 10 h, curve plateau at infinite concentration, read-out: HeLa-ACE2 TOA CoV-2 Sinf Average) was 100% and the pEC50 (SARS-CoV-2 [4]; Severe acute respiratory syndrome coronavirus 2, HeLa-ACE2) was under 5.08. The “Synergy score with remdesivir (δ)” value (SARS-CoV-2 [5]) was −1.23, the interaction with remdesivir (SARS-CoV-2 [5]; ZIP model) was “additive (Additive effect: -10< δ <10)” and the “dose-response point, normalized infected cells” value (SARS-CoV-2 [5]; alone, Concentration [uM] -7.08145) was 8.854 and 6.527 and 6.904. The “HeLa-ACE2 synergy score with remdesivi [δ]” value (SARS-CoV-2 [5]; combination with remdesivir, synergy score δ) was -1.233, the “reduction in apical viral loads” value (SARS-CoV-2 [14]) was over 1 log and the “protection from weight loss and viral replication” value (SARS-CoV-2 [15]; 500 mg/kg PO BID) was “failed to protect animals from weight loss and viral replication”. For the same molecule, the “hamster weight relative to day 0, individual animals” value (SARS-CoV-2 [15]; Day 1) was 99.1786 and 96.9182 and 97.0207 and 99.8527, the “hamster weight relative to day 0, individual animals” value (SARS-CoV-2 [15]; Day 2) was 97.2793 and 94.4654 and 95.1466 and 96.8581 and the “hamster weight relative to day 0, individual animals” value (SARS-CoV-2 [15]; Day 3) was 95.4312 and 90.7547 and 93.8011 and 92.8326. For the same molecule, the “hamster weight relative to day 0, individual animals” value (SARS-CoV-2 [15]; Day 4) was 92.4025 and 86.7925 and 92.1672 and 89.1998, the “hamster weight relative to day 0, individual animals” value (SARS-CoV-2 [15]; Day 5) was 90.1951 and 82.0755 and 91.0139 and 86.6961 and the “viral titers in lungs, individual animals” value (SARS-CoV-2 [16]) was 9.667 and 7.176 and 8.778 and 9.217. The “plasma level of nelfinavir, individual animals” value (“plasma level of nelfinavir” below) ([17]; 0:30:00) was 40.7 and 326 and 282, the “plasma level of nelfinavir” value ([17]; 1:00:00) was 20.2 and 6320 and 206 and the “plasma level of nelfinavir” value ([17]; 3:00:00) was 108 and 244 and 71.4. For the same molecule, the “plasma level of nelfinavir” value ([17]; 7:00:00) was 156 and 276 and 245, the “Cl (mL/min/kg)” value ([17]; 10%DMSO/90% Corn Oil) was 2,542.16 mL/min/kg and the “Vd” value ([17]; 10%DMSO/90% Corn Oil) was 706.35 L/kg. For the same molecule, the “plasma level of nelfinavir” value ([17]; 24:00:00) was “BQL and 41 and 2.73”, the “plasma level of nelfinavir” value ([17]; 32:00:00) was “BQL and 16.9 and 0.47” and the “plasma level of nelfinavir” value ([17]; 48:00:00) was “BQL (2×) and 1.81”. The “plasma exposure versus HeLa-ACE2 SARS-CoV-2 EC50” value ([17]; hamster) was “failed to reach exposures above HeLa-ACE2 SARS-CoV-2 EC50”, the AUC(0-t) ([17]; male, Syrian, hamster, plasma, 10%DMSO/90% Corn Oil, read-out: AUC0-24) was 3760 ng·h/mL and the AUC(0-t) ([17]; male, Syrian, hamster, plasma, 10%DMSO/90% Corn Oil, read-out: AUCLAST) was 3870 ng·h/mL. The AUC(0-inf) [17, 29] was 5480 ng·h/mL, the Cmax [17, 29] was 2250 ng/mL and the MRT [17, 29] was 5.82 h. For the same molecule, the Tmax [17, 29] was 2.83 h, the half-life [17, 29] was 4.02 h and the Emax (HeLa-ACE2 cells [18]; HeLa-ACE2, 10 h, read-out: HeLa-ACE2 TOA cell count Sinf Average) was 100%. For the same molecule, the pEC50 (HeLa-ACE2 cells [18]; HeLa-ACE2, read-out: HeLa-ACE2 TOA cell count EC50 GeoMean) was under 5.02, the pEC50 (HeLa-ACE2 cells [8]) was under 5.02 and the Emax (Calu-3 cells [9]; Calu-3, 48 h, read-out: Calu-3 cell count Sinf Average) was 79%. For the same molecule, the pEC50 (Calu-3 cells [9]) was 6.06, the “Approx. t1/2” value ([19]; human) was 7 h and the Cmax ([19]; read-out: Approx. Cmax, human oral) was 17 µM. For the same molecule, the CC50 at 72 h [20] was over 39.8 µM, the “HepG2 72-hour cytotoxicity Sinf Average” value (HepG2) was -100% and the CC50 at 72 h [21] was 15.7 µM. The “HEK293T 72-hour cytotoxicty Sinf Average” value (HEK293T) was -100%, the CC50 at 48 h [22] was over 9.4 µM and the “Calu-3 uninfected cytotoxicity Sinf Average” value (Calu-3 cells [23]) was -93%.

In the case of CC(C)CC(NC(=O)OCc1ccccc1)C(=O)NC(C(=O)NCC(=O)C=[N+]=[N-])C(C)C (stereo not drawn) [Z LVG CHN2] (Cbz-Leu-Val-Gly-CHN2; configuration not given here), the Emax (SARS-CoV-2 [1]) was 87%, the pEC50 (SARS-CoV-2 [1]; [24]) was 7.14 and the “HeLa-ACE2 SI” value (SARS-CoV-2 [1]) was over 554.29. For the same molecule, the CC50 at 24 h [2, 25] was over 39.8 µM, the “HeLa-ACE2 uninfected cytotoxicity Sinf Average” value (HeLa-ACE2 cells [13]; human, uninfected HeLa-ACE2 cells, 24 h) was -100% and the pEC50 (SARS-CoV-2 [3]; [26]) was under 5.00. The “TOA:HeLa-ACE2 EC50 Ratio” value (SARS-CoV-2 [4]) was 133.491, the pEC50 (SARS-CoV-2 [4]; [27]) was under 5.02 and the pEC50 (HeLa-ACE2 cells [6]) was under 5.02. For the same molecule, the “uninfected Calu-3 CC50” value (Calu-3 cells [7]) was > 29.867 ×÷ 1.001 (n=3) μM, the pEC50 (HeLa-ACE2 cells [8]) was under 5.02 and the pEC50 (Calu-3 cells [9]) was under 5.00. It also gave a CC50 at 48 h (in vitro [10]) of over 29.9 µM, a CC50 at 72 h (in vitro [11]) of over 39.8 µM and a CC50 at 72 h (in vitro [12]) of over 39.8 µM.
